Measurements taken from patent publication US10118922B2 (Janssen Pharmaceutica NV, priority 2013, dated 2018).

Legend:
[1] = system: C57B16 mice on a high fat diet; test: GPR120 DIO mice OGTT screening; assay type: in vivo, mouse; conditions: dosed 30 min prior to glucose PO
Description: 18-22 week old, C57B16 mice on a high fat diet (60% HFD) for 12-16 weeks (ave. body weight ˜37-41 g) were fasted for 6 hr, with removal of food occurring at 7 am on the morning of the study. The animals were sorted into treatment groups the day before the study by body weight. Animals outside the bounds of ˜30-50 g were left out of the study. The animals had been handled and shammed a total of 5-8 days (1-3 days immediately prior to the study). Glucose (in 1 mL syringes) was drawn up the morning of the study. Test compounds were kept spinning and were only drawn into 1 ml syringes prior to study commencement. Animals were bled via tail snip to determine basal glucose levels prior to dosing of treatments. An Ascensia BREEZE Blood Glucose Monitoring System by Bayer was used for determining glucose levels.
Animals were moved into the testing room at ˜9-11 am, to yield them time to acclimate. The bleeds and dosing started at approximately 1 pm in 30-second intervals per animal. All groups were dosed 30 minutes prior to glucose administration at a dose volume of 10 ml/kg (the dose volume was calculated separately for each individual animal). Test compounds were administered at one or more of the following dosages: 0.1 mg/kg, 0.3 mg/kg, 1 mg/kg, 3 mg/kg and 10 mg/kg.
Thirty minutes after the first dose (with test compound) animals were bled again for a second baseline, or T=0, and immediately dosed with glucose (20% solution; TEKNOVA, 250 ml sterile bottle w/ catalogue number G0525) via a PO injection. The exact dose volume for glucose was also calculated separately for each individual animal.
Blood glucose was measured at 15, 30, 45, 60, and 90 minutes post-glucose administration via the snipped tail. If an animal reached a value of “HI”, the upper limit of the glucometer (600 mg/dl) was substituted as the blood glucose value and the study was analyzed as normal with no exclusions. If 50% or more of any treatment group reaches a “HI” value at least once, the study was considered invalid and repeated. Glucose values were typed into an EXCEL spreadsheet where they were used to calculate glucose AUC and delta AUC post-compound and post-glucose. The glucose excursion curves and the different versions of the AUC's were graphed in GraphPad Prism 5.
Note: All statistics completed in this study were completed using the statistical software package GraphPad Prism 5. Standard procedures for analyzing data sets from screening GPR120 compounds in DIO mouse OGTT's were as listed here below. In addition to the statistics that were run using GraphPad Prism 5, Microsoft Excel was used to calculate the percent changes in AUC from vehicle groups as detailed below.
Change from −30 to 0 BSLN Glucose, Raw Glucose AUC −30 to 90 min, Delta Glucose AUC −30 to 90 min, Raw Glucose AUC 0 to 90 min, Delta Glucose AUC 0 to 90 min were analyzed using Column Statistics Analysis, with mean values used to calculate % change from the vehicle mean group, as well as mean, SEM and/or % change from vehicle, where appropriate; and using One-Way ANOVA w/ a Tukey Post-Test (Comparing All Pairs of Columns) with each treatment group examined to see if it was statistically significant compared to vehicle (*=P<0.05, **=P<0.01, ***=P<0.001).

[2] = system: C57bl/6J Mice; test: GPR120 C57bl6 mouse IPGTT; assay type: in vivo; conditions: 3 mg/kg, dosed 30 min prior to glucose IP 1.5 g/kg
Description: (§1) Male, C57bl/6J Mice were ordered in at 8 weeks of age from Jackson Labs. Individual mice weighed anywhere in the range of 25-30 grams on study day. The mice were fasted, with removal of food occurring at 7 am on the morning of the study. Animals were moved into the room at 10:00 am, to give them time to acclimate. Glucose (insulin syringes) was drawn up either the night before or the morning of the study. Glucose was dosed (IP) at 1.5 g/kg at 7.5 ml/kg (20% glucose straight TEKNOVA, 250 ml sterile bottle w/ catalogue number G0525). Test compounds were kept spinning and were only drawn into the syringes prior to study commencement. Animals were bled via tail snip to determine basal glucose levels prior to dosing of treatments. An Ascensia BREEZE Blood Glucose Monitoring System by Bayer (using unique 10-test disks) was used for determining glucose levels. The bleeds started at approximately 12:45 pm and dosing started, at 1-minute intervals, immediately after. All groups were dosed 30 minutes prior to glucose administration at a dose volume of 10 ml/kg (the dose volume was calculated separately for each individual animal). Thirty minutes after the first dose animals were bled again for a second baseline, or T=0, and immediately dosed with glucose via an i.p. injection. The exact dose volume for glucose was also calculated separately for each individual animal. Glucose measurements were taken at −30 min prior to compound dose, at t=0 (immediately prior to glucose dose), and at 15, 30, 45, 60, 90 min post glucose dose.
(§2) Glucose values were entered into an Excel sheet and graphed in GraphPad Prism. The following were calculated from Prism: Change from −30 to 0 BSLN Glucose, Raw Glucose AUC −30 to 90 min, Delta Glucose AUC −30 to 90 min, Raw Glucose AUC 0 to 90 min, Delta Glucose AUC 0 to 90 min.

[3] = system: C57b16 mouse; test: C57b16 mouse OGTT; assay type: in vivo; conditions: dosed 30 min prior to glucose PO 3 g/kg
Description: as §1, §2
The assay design is the same as that described above for the C57b16 mouse IPGTT. The difference is that glucose was dosed PO at 3 g/kg, 7.5 ml/kg of 40% glucose.

SMILES: Cc1ccc(-c2nsc(C(F)(F)F)c2COc2c(F)cc(CCC(=O)O)cc2F)c(F)c1 [Cpd 65, 3-(3,5-difluoro-4-[[3-(2-fluoro-4-methylphenyl)-5-(trifluoromethyl)-1,2-thiazol-4-yl]methoxy]phenyl)propanoic acid]
- DIO Lowering Glucose AUC (−30 to 90) @ 10 mg/kg [1]: −0.61

SMILES: O=C(O)CCc1cc(F)c(OCc2c(-c3ccc(Cl)c(F)c3)nsc2C(F)(F)F)c(F)c1 [Cpd 67, 3-(4-((3-(4-chloro-3-fluorophenyl)-5-(trifluoromethyl)isothiazol-4-yl)methoxy)-3,5-difluorophenyl)propanoic acid]
- DIO Lowering Glucose AUC (−30 to 90) @ 10 mg/kg [1]: −0.78

SMILES: O=C(O)CCc1cc(F)c(OCc2c(C3CCCC3)nsc2C(F)(F)F)c(F)c1 [Cpd 71, 3-(4-[[3-cyclopentyl-5-(trifluoromethyl)-1,2-thiazol-4-yl]methoxy]-3,5-difluorophenyl)propanoic acid]
- DIO Lowering Glucose AUC (−30 to 90) @ 10 mg/kg [1]: −0.52
- C57 IPGTT 3 mg/kg [2]: −14
- C57 OGTT 3 mg/kg [3]: −37

SMILES: CCc1ccc(-c2nsc(C(F)(F)F)c2COc2ccc(CCC(=O)O)c(F)c2F)cc1 [Cpd 73, 3-(4-((3-(4-ethylphenyl)-5-(trifluoromethyl)isothiazol-4-yl)methoxy)-2,3-difluorophenyl)propanoic acid]
- DIO Lowering Glucose AUC (−30 to 90) @ 10 mg/kg [1]: −0.51

SMILES: O=C(O)CCc1cc(F)c(OCc2c(-c3ccc(Cl)cc3F)nsc2C(F)(F)F)c(F)c1 [Cpd 74, 3-(4-((3-(4-chloro-2-fluorophenyl)-5-(trifluoromethyl)isothiazol-4-yl)methoxy)-3,5-difluorophenyl)propanoic acid]
- DIO Lowering Glucose AUC (−30 to 90) @ 10 mg/kg [1]: −0.71

SMILES: Cc1ccc(-c2nsc(C(F)(F)F)c2COc2c(F)cc(CC(C)C(=O)O)cc2F)c(F)c1 (centres unmarked) [Cpd 76, 3-(3,5-difluoro-4-[[3-(2-fluoro-4-methylphenyl)-5-(trifluoromethyl)-1,2-thiazol-4-yl]methoxy]phenyl)-2-methylpropanoic acid]
- DIO Lowering Glucose AUC (−30 to 90) @ 10 mg/kg [1]: −0.8
